Values quoted from earlier work, collected in patent publication US20210319872A1, “DRUG AND DEVICE COMBINATION PRODUCTS WITH IMPROVED SAFETY AND EFFICACY PROFILES” (priority 2016, published 2021).
Like-named read-outs stand apart in the source and are kept apart here. One block for each molecule: values may come before it.

[1] = subependymal giant cell astrocytoma

Structure (SMILES): CC(CCc1ccccc1)NCC(O)c1ccc(O)c(C(N)=O)c1.Cl (centres unmarked)
Dizziness (in vivo): Neurologic: Dizziness (9% to 20%)
Fatigue (in vivo): Other: Fatigue (11%)
Has tingling sensation (in vivo): Dermatologic: Has tingling sensation (7%.)
Nasal congestion (in vivo): Respiratory: Nasal congestion (3%)
Nausea (in vivo): Gastrointestinal: Nausea (14%)
Orthostatic hypotension (in vivo, iv): Cardiovascular: Orthostatic hypotension (1%, oral; 58%, IV)
Orthostatic hypotension (in vivo, po): Cardiovascular: Orthostatic hypotension (1%, oral; 58%, IV)

Structure (SMILES): CCCC(=O)Nc1ccc(OCC(O)CNC(C)C)c(C(C)=O)c1 (centres unmarked) [Acebutolol (Sectral)]
Angina (in vivo): Cardiovascular: Angina (2%), Bradyarrhythmia (2%), Heart failure
Bradyarrhythmia (in vivo): Cardiovascular: Angina (2%), Bradyarrhythmia (2%), Heart failure
Dizziness (in vivo): Neurologic: Dizziness (6%), Headache (6%)
Fatigue (in vivo): Other: Fatigue (11%)
Headache (in vivo): Neurologic: Dizziness (6%), Headache (6%)
Heart failure (in vivo): (2%)

Pulmonary embolism (PNET): 2.5%
Thrombocytopenia, All grades (Transplant): ≤ 10%
Thrombotic thrombocytopenic purpura (Transplant): < 1%
Non-infectious pneumonia (in vivo): ≤ 19%
Constipation (kidney transplant): 38%
Cough (kidney transplant): 7%
Fatigue (kidney transplant): 9%
Fever (kidney transplant): 19%
Hypercholesterolemia (kidney transplant): 17%
Hyperlipidemia (kidney transplant): 21%
Hypertension (kidney transplant): 30%
Hypophosphatemia (kidney transplant): 13%
Increased glucose level, All grades (kidney transplant): 12%
Infectious disease (kidney transplant): 62%
Leukopenia (kidney transplant): 3%
Nausea (kidney transplant): 29%
Peripheral edema (kidney transplant): 45%
Serum creatinine raised (kidney transplant): 18%
Stomatitis (kidney transplant): 8%
Upper respiratory infection (kidney transplant): transplant, 16%)
Urinary tract infectious disease (kidney transplant): 16%; kidney transplant, 22%)
Vomiting (kidney transplant): 15%
Fever (liver transplant): transplant, 13%)
Hyperlipidemia (liver transplant): 24%
Hypertension (liver transplant): 17%
Impaired wound healing (liver transplant): liver transplant, 11%)
Infectious disease (liver transplant): 50%
Leukopenia (liver transplant): 12%
Nausea (liver transplant): 14%
Peripheral edema (liver transplant): 18%
Menorrhagia (renal angiomyolipoma): angiomyolipoma, 10%)
Hemorrhage (renal cell carcinoma): 3%
Pneumonia (renal cell carcinoma): 6%
Mental disorder [1]: astrocytoma, 21%)
Pleural effusion (tumors): 7%
Sepsis (tumors): < 1%
Structure (SMILES): CO[C@H]1C[C@@H]2CC[C@@H](C)[C@@](O)(O2)C(=O)C(=O)N2CCCC[C@H]2C(=O)O[C@H]([C@H](C)C[C@@H]2CC[C@@H](OCCO)[C@H](OC)C2)CC(=O)[C@H](C)/C=C(\C)[C@@H](O)[C@@H](OC)C(=O)[C@H](C)C[C@H](C)/C=C/C=C/C=C/1C [Afinitor]
Angioedema (Transplant): Other: Angioedema (Transplant, up to 6.8%), Sepsis (tumors less
Hemolytic uremic syndrome (Transplant): Renal: Hemolytic uremic syndrome (Transplant, less than 1%),
Pericardial effusion (Transplant): Cardiovascular: Pericardial effusion (Transplant, less than 1%)
Thrombotic microangiopathy (Transplant): < 1%), Thrombotic thrombocytopenic purpura (Transplant, less than
Hypoalbuminemia (breast cancer): Hypoalbuminemia (breast cancer, 33%), Hypophosphatemia
Interstitial lung disease (in vivo): Respiratory: Interstitial lung disease (Less than 1%), Non-
Anemia, All grades (kidney transplant): transplant, 26%), Decreased lymphocyte count, all grades (tumors,
Diarrhea (kidney transplant): kidney transplant, 19%; liver transplant, 19%), Nausea (tumors,
Dyslipidemia (kidney transplant): Endocrine metabolic: Dyslipidemia (kidney transplant, 15%),
Impaired wound healing (kidney transplant): Immunologic: Impaired wound healing (kidney transplant, 35%;
Serious side effect, Respiratory (listed without frequency): Pneumocystis pneumonia
Diarrhea (liver transplant): kidney transplant, 19%; liver transplant, 19%), Nausea (tumors,
Amenorrhea (renal angiomyolipoma): Reproductive: Amenorrhea (renal angiomyolipoma, 15%),
Otitis media (renal angiomyolipoma): Otic: Otitis media (renal angiomyolipoma, 6%)
Seizure (renal angiomyolipoma): Neurologic: Seizure (renal angiomyolipoma, 5%)
Renal failure (renal cell carcinoma): Renal failure (renal cell carcinoma, 3%), Thrombosis of renal
Partial thromboplastin time increased [1]: giant cell astrocytoma, 72%), Thrombocytopenia, All grades

Structure (SMILES): Cc1ccc(-c2nc3ccc(C)cn3c2CC(=O)N(C)C)cc1 [Ambien (zolpidem)]
Allergic reaction (in vivo): Immunologic: Allergic reaction (4%)
Anaphylaxis (in vivo): Immunologic: Anaphylaxis (rare)
Angioedema (in vivo): Other: Angioedema (rare)
Chest pain (in vivo): Cardiovascular: Chest pain (1%), Tachycardia (0.1% to 1%)
Diarrhea (in vivo): Gastrointestinal: Diarrhea (1% to 3%), Nausea (1% to 7%)
Dizziness (in vivo): Neurologic: Dizziness (1% to 23.5%), Drugged state (3%),
Drugged state (in vivo): Neurologic: Dizziness (1% to 23.5%), Drugged state (3%),
Fatigue (in vivo): Other: Fatigue (0.1% to 3%)
Headache (in vivo): Headache (1% to 19%), Somnolence (2% to 15%)
Nausea (in vivo): Gastrointestinal: Diarrhea (1% to 3%), Nausea (1% to 7%)
Serious side effect, Neurologic (in vivo): Neurologic: Hepatic encephalopathy
Somnolence (in vivo): Headache (1% to 19%), Somnolence (2% to 15%)
Tachycardia (in vivo): Cardiovascular: Chest pain (1%), Tachycardia (0.1% to 1%)
Visual disturbance (in vivo): Ophthalmic: Visual disturbance (3%)

Structure (SMILES): N=C(N)NC(=O)c1nc(Cl)c(N)nc1N [Amiloride (Midamor)]
Asthenia (in vivo): Musculoskeletal: Asthenia (greater than 1% to less than 3%),
Cardiac dysrhythmia (incidence) (in vivo): Cardiovascular: Cardiac dysrhythmia (1% or less), Palpitations (1%
Cough (incidence) (in vivo): Respiratory: Cough (greater than 1% to less than 3%), Dyspnea
Cramp (in vivo): Cramp (greater than 1% to less than 3%)
Diarrhea (in vivo): Gastrointestinal: Diarrhea (3% to 8%), Loss of appetite (3% to 8%),
Dizziness (in vivo): Neurologic: Dizziness (greater than 1% to less than 3%), Headache
Dyspnea (incidence) (in vivo): (greater than 1% to less than 3%)
Encephalopathy (incidence) (in vivo): Neurologic: Encephalopathy (greater than 1% to less than 3%)
Headache (incidence) (in vivo): (3% to 8%)
Hyperkalemia (incidence) (in vivo): Endocrine metabolic: Hyperkalemia (10%)
Nausea (in vivo): Nausea (3% to 8%), Vomiting (3% to 8%)
Palpitations (incidence) (in vivo): Cardiovascular: Cardiac dysrhythmia (1% or less), Palpitations (1%
Raised intraocular pressure (incidence) (in vivo): Ophthalmic: Raised intraocular pressure (1% or less)
Rash (in vivo): Dermatologic: Rash (1% or less)
Serious side effect listed (incidence not given) (in vivo): Hematologic: Aplastic anemia, Neutropenia
Vomiting (in vivo): Nausea (3% to 8%), Vomiting (3% to 8%)

Structure (SMILES): CCOC(=O)C1=C(COCCN)NC(C)=C(C(=O)OC)C1c1ccccc1Cl (centres unmarked) [Amlodipine (Norvasc, Lotrel)]
Abdominal pain (in vivo): Gastrointestinal: Abdominal pain (1.6%), Nausea (2.9%.)
Dizziness (in vivo): Neurologic: Dizziness (Up to 3.4%), Headache (7.3%),
Fatigue (in vivo): Other: Fatigue (4.5%)
Flushing (in vivo): Cardiovascular: Flushing (0.7% to 2.6%), Palpitations (Up to
Headache (in vivo): Neurologic: Dizziness (Up to 3.4%), Headache (7.3%),
Nausea (in vivo): Gastrointestinal: Abdominal pain (1.6%), Nausea (2.9%.)
Palpitations (in vivo): ≤ 4.5%), Peripheral edema (Up to 10.8%)
Peripheral edema (in vivo): ≤ 4.5%), Peripheral edema (Up to 10.8%)
Somnolence (in vivo): Somnolence (1.4%)

Structure (SMILES): Nc1ccncc1 [Ampyra]
Abdominal pain (in vivo): Gastrointestinal: Abdominal pain (7%), Nausea (7% to 13%),
Abnormal gait (in vivo): Musculoskeletal: Abnormal gait (5%), Backache (5%)
Anxiety (in vivo): Psychiatric: Anxiety (5%)
Asthenia (in vivo): Neurologic: Asthenia (7%), Dizziness (7%), Headache (7%),
Backache (in vivo): Musculoskeletal: Abnormal gait (5%), Backache (5%)
Dizziness (in vivo): Neurologic: Asthenia (7%), Dizziness (7%), Headache (7%),
Headache (in vivo): Neurologic: Asthenia (7%), Dizziness (7%), Headache (7%),
Insomnia (in vivo): Insomnia (9%)
Nausea (in vivo): Gastrointestinal: Abdominal pain (7%), Nausea (7% to 13%),
Serious side effect, Immunologic (in vivo): Immunologic: Anaphylaxis, Hypersensitivity reaction
Serious side effect, Neurologic (in vivo): Neurologic: Seizure
Urinary tract infectious disease (in vivo): Renal: Urinary tract infectious disease (12%)
Vomiting (in vivo): Vomiting (13%)

Structure (SMILES): CCC1(CCC(C)C)C(=O)NC(=O)NC1=O [Amytal (amobarbital)]
Agranulocytosis (in vivo): Hematologic: Agranulocytosis (rare), Megaloblastic anemia, With
Common side effect, Neurologic (in vivo): Neurologic: Confusion, Dizziness, Headache, Somnolence
Injury of liver, With prolonged use (in vivo): Hepatic: Injury of liver, With prolonged use (rare)
Megaloblastic anemia, With prolonged use (in vivo): prolonged use (rare)
Serious side effect, Respiratory (in vivo): Respiratory: Apnea, Hypoventilation
Stevens-Johnson syndrome (in vivo): Dermatologic: Stevens-Johnson syndrome (rare)

Structure (SMILES): COc1ccc(-n2nc(C(N)=O)c3c2C(=O)N(c2ccc(N4CCCCC4=O)cc2)CC3)cc1 [Apixaban (Eliquis)]
Bleeding gums (in vivo): Gastrointestinal: Bleeding gums (Less than 0.1% to 1.4%)
Bleeding, Major (in vivo): prophylaxis, 2.88% to 4.83%), Bleeding, Major (0.1% to 2.13%),
Conjunctival hemorrhage (in vivo): Ophthalmic: Conjunctival hemorrhage (0.1% to less than 1%),
Contusion (in vivo): Dermatologic: Contusion (1.4% to 2.2%)
Hematochezia (in vivo): pulmonary embolism, 0.1% to less than 1%), Hematochezia (0.1%
Hematoma (in vivo): Hematologic: Hematoma (DVT, 1.3% to 1.5%)
Hemorrhage (in vivo): Hemorrhage (0.1% to 1.4%), Hemorrhage, Operative (DVT
Hemorrhage of muscle (in vivo): Musculoskeletal: Hemorrhage of muscle (Less than 0.1% to less
Hemorrhage, Operative (in vivo): prophylaxis, 0.1% to less than 1%)
Hypersensitivity reaction (in vivo): < 1%)
Intracranial hemorrhage (in vivo): fibrillation, 0.33% to 0.34%/year), Non-traumatic spinal subdural
Intraocular hemorrhage (in vivo): Intraocular hemorrhage (Less than 0.1% to less than 1%), Retinal
Liver function tests abnormal (in vivo): 0.1% to less than 1%), Serum bilirubin raised (DVT prophylaxis,
Menorrhagia (in vivo): Reproductive: Menorrhagia (1.4%)
Retinal hemorrhage (in vivo): hemorrhage (0.1% to less than 1%)
Serum bilirubin raised (in vivo): 0.1% to less than 1%)
